One test has as its system hMPV A2 TN/94-49. The experiment in a line: HMPV antiviral assay Method 2 (LLC-MK2 cells with CP-100-356, ATP-Lite). The settings on record: hMPV A2 TN/94-49, LLC-MK2 cells, 4 μM CP-100-356, Method 2. It counts as cell-based. In a few lines: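 LLC-MK2 cells infected in suspension with hMPV A2 TN/94-49 at MOI 0.16, in serum-free OptiMEM with final 2 μg/mL TPCK-trypsin and 2 μM CP-100-356 (P-gp inhibitor). Compounds tested in duplicate, top 200 nM, 2.5-fold, 10 points; 7 days at 37 °C. ATP-Lite cell health normalised to controls; EC50 by four-parameter fit.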

In test [1] the test system is HUMAN RSV-A (“LONG” STRAIN). The experiment in a line: RSV-A assay (CPE, ATPlite) in Hep-2 cells. The test is classed as cell-based. The settings on record: human respiratory syncytial virus, 120 h, MOI 0.1, 5-day incubation. An excerpt: Methods for RSV-A Assay Hep-2 cells, (originally derived from tumors grown in irradiated-cortisonised weanling rats that had been injected with epidermoid carcinoma tissue from the larynx of a person, but later found to be indistinguishable from HeLa cells by PCR DNA analysis), were used for the culturing of genotype A, “Long” strain RSV. Flasks were inoculated with RSV and viral stocks were collected once cytopathic effect (CPE) was greater than 90%. Viral stocks in 25% sucrose media were snap frozen using liquid nitrogen to increase viral stability. Viral stock titers were quantified by tissue culture infectious dose 50% (TCID50) using 8,000 cells per well and 3-fold viral dilutions across a 96-well plate, cultured for 4 days. Viral stock titers were also quantified by a plaque forming unit assay, as described elsewhere.
Following extensive parameter testing, the final assay is run as follows: Hep-2 cells are seeded into the inner 60 wells of a 96-well plate at 8,000 cells per well in a volume of 50 μL using Growth Media (DMEM without phenol red, 1% L-Glut, 1% Penn/Strep, 1% nonessential amino acids, 10% heat-inactivated FBS). 2-fold serial dilutions of control and test compounds are added to the wells in duplicate in a total volume of 25 μL. Viral stock is then added to the wells at a multiplicity of infection (MOI) of 0.1 in a volume of 25 μL, bringing the total volume of each well to 100 μL. The MOI is calculated using the PFU/mL, or TCID50 if unavailable. Each 96-well plate has a control column of 6 wells with cells and virus but no compound (negative control, max CPE), a column with cells but no compound or virus (positive control, minimum CPE), and a column with no cells or virus or compound (background plate/reagent control). The control wells with cells but no virus are given an additional 25 μL of growth media containing an equal quantity of sucrose as those wells receiving the viral stock in order to keep consistent in media and volume conditions. The outer wells of the plate are filled with 125 μL of moat media (DMEM, 1% Penn/Strep) to act as a thermal and evaporative moat around the test wells. Following a 5-day incubation period, the plates are read using ATPlite (50 uL added per well), which quantifies the amount of ATP (a measure of cell health) present in each well. Assay plates are read using the Envision luminometer. […] EC50 ranges are as follows: A<0.2 μM; B>0.2 μM.

By EC50 is commonly meant the concentration that produces a half-maximal response. Low values mean higher potency in that assay, high ones lower potency in that assay. With `COc1cc(C(=O)NC[C@@](O)(c2ccnc(N)c2)c2cc3c(c(-c4cc(Cl)c(F)cc4F)n2)OC[C@]3(C)C(N)=O)cc2cn(C3CC3)nc12` [Example 484], the EC50 (with hMPV A2 TN/94-49; in test [1]) was less than 200 nM in each case.

Regarding `COc1cc(C(=O)NC[C@@](O)(c2ccccc2)c2cc3c(c(-c4ccc(F)c(F)c4Cl)n2)OC[C@]3(C)C(N)=O)cc2cn(C3(F)CC3)nc12` [Example 370], the EC50 (with hMPV A2 TN/94-49; in test [1]) was less than 200 nM throughout.

Consider `C[C@]1(C(N)=O)COc2c1cc([C@@](O)(CNC(=O)c1ccc3nc(C4CC4)oc3c1)c1ccccc1)nc2-c1cc(C(F)(F)F)c(F)cc1F` [Example 307], for which the EC50 with hMPV A2 TN/94-49 is more than 200 nM; in test [1], less than 200 nM.

On to `COc1cc(-c2nc([C@@](O)(CNC(=O)c3cc(OC)c4nn(C5(F)CC5)cc4c3)c3ccccc3)cc3c2OC[C@]3(C)C(N)=O)c(F)cc1F` [Example 364], for which the EC50 in the test with hMPV A2 TN/94-49 was more than 200 nM; in test [1] it was less than 200 nM.

For `COc1cc(C(=O)NCC(O)(c2cc3c(c(-c4cc(Cl)c(F)cc4F)n2)OC[C@]3(C)C(N)=O)c2ccc(Cl)s2)cc2cn(C3CC3)nc12` (stereo partly drawn) [Example 472], the EC50 in the test on hMPV A2 TN/94-49 was more than 200 nM; in test [1], less than 200 nM.

In the case of `COc1cc(C(=O)NC[C@@](O)(c2cccc(C#N)c2)c2cc3c(c(-c4cc(Cl)c(F)cc4F)n2)OC[C@]3(C)C(N)=O)cc2cn(C3CC3)nc12` [Example 488], the EC50 (with hMPV A2 TN/94-49; in test [1]) was less than 200 nM each time.

Consider `COc1cc(C(=O)NC[C@@](O)(c2ccccc2)c2cc3c(c(-c4cc(F)c(F)cc4F)n2)OC[C@]3(C)C(N)=O)cc2oc(C3CC3)nc12` [Example 195], for which the EC50 (with hMPV A2 TN/94-49; in test [1]) was less than 200 nM each time.

On to `COc1cc(C(=O)NC[C@@](O)(c2cccc(F)c2)c2cc3c(c(-c4cccc(Cl)c4Cl)n2)OC[C@]3(C)C(N)=O)cn2cc(C3CC3)nc12` [Example 337], for which the EC50 (with hMPV A2 TN/94-49; in test [1]) was less than 200 nM each time.

Take `COc1cc(C(=O)NC[C@@](O)(c2ccccc2)c2cc3c(c(-c4cc(Cl)c(F)cc4F)n2)OC[C@]3(C)C(N)=O)cc2cc(Cl)nnc12` [Example 113]: the EC50 (with hMPV A2 TN/94-49; in test [1]) was less than 200 nM in each case.

For the molecule `COc1cc(C(=O)NC[C@@](O)(c2cccc(F)c2)c2cc3c(c(-c4cc(F)c(F)cc4C(N)=O)n2)OC[C@]3(C)C(N)=O)cc2cn(C3(F)CC3)nc12` [Example 405], the EC50 (in the test on hMPV A2 TN/94-49; in test [1]) was more than 200 nM throughout.

For the molecule `COc1cc(C(=O)NC[C@@](O)(c2cnn(C)c2)c2cc3c(c(-c4cc(Cl)c(F)cc4F)n2)OC[C@]3(C)C(N)=O)cc2cn(C3CC3)nc12` [Example 153], the EC50 (in the test on hMPV A2 TN/94-49; in test [1]) was more than 200 nM throughout.

Regarding `COc1cc(F)c(-c2nc([C@@](O)(CNC(=O)c3cc(OC)c4nn(C5(F)CC5)cc4c3)c3ccccc3)cc3c2OC[C@]3(C)C(N)=O)cc1F` [Example 363], the EC50 in the test with hMPV A2 TN/94-49 is more than 200 nM; in test [1], less than 200 nM.

In the case of `COc1cc(C(=O)NC[C@@](O)(c2ccccc2)c2cc3c(c(-c4cc(Cl)c(F)cc4F)n2)OC[C@]3(C)C(N)=O)cc2oc(N)nc12` [Example 237], the EC50 (in the test with hMPV A2 TN/94-49; in test [1]) was less than 200 nM in each case.

For the molecule `COc1cc(C(=O)NC[C@@](O)(c2ccncc2)c2cc3c(c(-c4cc(Cl)c(F)cc4F)n2)OC[C@]3(C)C(N)=O)cc2cn(C3CC3)nc12` [Example 152], the EC50 (in the test on hMPV A2 TN/94-49; in test [1]) was less than 200 nM each time.

Consider `COc1cc(C(=O)NC[C@@](O)(c2cccc(F)c2)c2cc3c(c(-c4ccc5c(c4Cl)OC(F)(F)O5)n2)OC[C@]3(C)C(N)=O)cc2oc(C3CC3)nc12` [Example 286], for which the EC50 (in the test on hMPV A2 TN/94-49; in test [1]) was less than 200 nM in each case.

As for `COc1cc([C@](O)(CNC(=O)c2cc(OC)c3nn(C4CC4)cc3c2)c2cc3c(c(-c4cccc(Cl)c4Cl)n2)OC[C@]3(C)C(N)=O)cc(OC)n1` [Example 497], the EC50 (with hMPV A2 TN/94-49; in test [1]) was less than 200 nM throughout.

`COc1cc(C(=O)NC[C@@](O)(c2ccccc2)c2cc3c(c(-c4cccc(Cl)c4Cl)n2)OC[C@]3(C)C(N)=O)cc2oc(C3CC3)nc12` [Example 96]: the EC50 (in the test on hMPV A2 TN/94-49; in test [1]) was less than 200 nM each time.

`COc1cc(C(=O)NC[C@@](O)(c2cccc(F)c2)c2cc3c(c(-c4ccc(C(C)(C)O)cc4)n2)OC[C@]3(C)C(N)=O)cc2cn(C3(F)CC3)nc12` [Example 397]: the EC50 (in the test on hMPV A2 TN/94-49; in test [1]) was more than 200 nM throughout.

With `COc1cc(C(=O)NC[C@@](O)(c2ccccc2)c2cc3c(c(-c4cc(C(F)(F)F)c(F)cc4F)n2)OC[C@]3(C)C(N)=O)cc2oc(C3CC3)nc12` [Example 305], the EC50 (in the test with hMPV A2 TN/94-49; in test [1]) was less than 200 nM throughout.

With `COc1cc(C(=O)NC[C@@](O)(c2ccccc2)c2cc3c(c(-c4cc(F)c(F)cc4F)n2)OC[C@]3(C)C(N)=O)cc2oc(C)nc12` [Example 193], the EC50 (in the test on hMPV A2 TN/94-49; in test [1]) was less than 200 nM in each case.

As to `COc1cc(C(=O)NC[C@@](O)(c2ccccc2)c2cc3c(c(-c4ccc(S(C)(=O)=O)cc4F)n2)OC[C@]3(C)C(N)=O)cc2cn(C3(F)CC3)nc12` [Example 371], the EC50 was more than 200 nM in the test on hMPV A2 TN/94-49 and less than 200 nM in test [1].

In the case of `C[C@]1(C(N)=O)COc2c1cc([C@@](O)(CNC(=O)c1cc(OC3CC3)c3ncc(Cl)cc3c1)c1ccccc1)nc2-c1cc(F)c(F)cc1F` [Example 197], the EC50 (in the test on hMPV A2 TN/94-49; in test [1]) was less than 200 nM each time.

As for `COc1cc([C@](O)(CNC(=O)c2cc(OC)c3nn(C(F)F)cc3c2)c2cc3c(c(-c4cccc(Cl)c4Cl)n2)OC[C@]3(C)C(N)=O)cc(OC)n1` [Example 498], the EC50 (in the test on hMPV A2 TN/94-49; in test [1]) was less than 200 nM in each case.

For the molecule `C[C@]1(C(N)=O)COc2c1cc([C@@](O)(CNC(=O)c1cc(OC3CC3)c3ncc(Cl)cc3c1)c1ccccc1)nc2-c1cc(Cl)c(F)cc1F` [Example 196], the EC50 (with hMPV A2 TN/94-49; in test [1]) was less than 200 nM throughout.

Turning to `C[C@]1(C(N)=O)COc2c1cc([C@@](O)(CNC(=O)c1ccc3nn(C4CC4)cc3c1)c1ccccc1)nc2-c1cc(Cl)c(F)cc1F` [Example 101], the EC50 (with hMPV A2 TN/94-49; in test [1]) was less than 200 nM in each case.

Turning to `COc1cc(C(=O)NC[C@](O)(c2cccc(F)c2)c2cc3c(c(-c4ccc(C(C)(C)O)cc4)n2)OC[C@]3(C)C(N)=O)cc2cn(C3(F)CC3)nc12` [Example 398], the EC50 (in the test with hMPV A2 TN/94-49; in test [1]) was more than 200 nM in each case.

`C[C@]1(C(N)=O)COc2c1cc([C@@](O)(CNC(=O)c1ccc3nc(C4(F)CC4)oc3c1)c1ccccc1)nc2-c1cc(Cl)c(F)cc1F` [Example 219]: the EC50 (with hMPV A2 TN/94-49; in test [1]) was less than 200 nM throughout.

Turning to `COc1cc(C(=O)NC[C@@](O)(c2ccnc(C)c2)c2cc3c(c(-c4cc(Cl)c(F)cc4F)n2)OC[C@]3(C)C(N)=O)cc2cn(C3CC3)nc12` [Example 485], the concentration giving a half-maximal response (EC50) (in the test on hMPV A2 TN/94-49; in test [1]) was less than 200 nM each time.

For the molecule `COc1cc(C(=O)NC[C@](O)(c2cccc(F)c2)c2cc3c(c(-c4cc(F)c(F)cc4C(N)=O)n2)OC[C@]3(C)C(N)=O)cc2cn(C3(F)CC3)nc12` [Example 406], the EC50 (in the test with hMPV A2 TN/94-49; in test [1]) was more than 200 nM each time.

In the case of `C[C@]1(C(N)=O)COc2c1cc([C@@](O)(CNC(=O)c1cc(F)c3nn(C4CC4)cc3c1)c1ccccc1)nc2-c1cc(Cl)c(F)cc1F` [Example 100], the EC50 (with hMPV A2 TN/94-49; in test [1]) was less than 200 nM in each case.

(Values after US12358921B2, “Antiviral heterocyclic compounds” (priority 2022, dated 2025).)
